Assay results published in ChEMBL document CHEMBL1136975, “Synthesis and activity of quinolinylmethyl P1' alpha-sulfone piperidine hydroxamate inhibitors of TACE” (Bioorg Med Chem Lett, 2009).

Assays:
[1] = target: Disintegrin and metalloproteinase domain-containing protein 17 (Homo sapiens, UniProt P78536); test: Inhibition of human TACE catalytic domain expressed in CHO cells by FRET assay; assay type: cell-based
[2] = target: 72 kDa type IV collagenase (Homo sapiens, UniProt P08253); test: inhibition of human recombinant MMP2 catalytic domain
Sequence of 72 kDa type IV collagenase (P08253 whole entry, the tested form may be a part): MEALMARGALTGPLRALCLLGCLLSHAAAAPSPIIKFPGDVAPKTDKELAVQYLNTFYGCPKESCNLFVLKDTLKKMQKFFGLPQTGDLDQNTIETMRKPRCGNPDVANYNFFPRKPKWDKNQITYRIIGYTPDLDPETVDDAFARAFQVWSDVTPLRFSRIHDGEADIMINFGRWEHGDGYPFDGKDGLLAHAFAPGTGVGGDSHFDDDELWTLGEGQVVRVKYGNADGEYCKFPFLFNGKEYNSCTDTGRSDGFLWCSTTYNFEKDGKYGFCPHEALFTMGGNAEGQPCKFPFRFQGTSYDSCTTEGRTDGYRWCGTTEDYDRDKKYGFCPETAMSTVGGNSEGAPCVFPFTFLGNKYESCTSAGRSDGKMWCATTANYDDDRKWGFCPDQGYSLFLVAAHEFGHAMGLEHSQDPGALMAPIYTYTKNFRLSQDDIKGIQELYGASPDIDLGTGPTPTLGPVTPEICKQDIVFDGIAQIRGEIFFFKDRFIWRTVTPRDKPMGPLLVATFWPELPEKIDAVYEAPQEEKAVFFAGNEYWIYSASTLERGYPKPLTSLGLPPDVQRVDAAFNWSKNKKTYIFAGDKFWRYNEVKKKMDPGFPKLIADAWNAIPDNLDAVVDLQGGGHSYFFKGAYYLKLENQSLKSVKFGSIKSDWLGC

Collagenase 3 = Collagenase 3 (Homo sapiens, UniProt P45452); test: inhibition of human recombinant MMP13 catalytic domain
Homo sapiens [3] = species: Homo sapiens; test: Selectivity ratio of IC50 for human recombinant MMP2 catalytic domain to IC50 for human TACE catalytic domain
Homo sapiens [4] = species: Homo sapiens; test: Selectivity ratio of IC50 for human recombinant MMP13 catalytic domain to IC50 for human TACE catalytic domain
RAW264.7 = test: Inhibition of LPS-induced TNFalpha production in mouse RAW264.7 cells preincubated for 1 hrs before LPS challenge measured after 4 hrs by ELISA; assay type: functional, cell-based
Blood = test: Inhibition of LPS-induced TNFalpha production in human whole blood preincubated for 1 hrs before LPS challenge measured after 4 hrs by ELISA; assay type: functional, tissue-based
[5] = target: Matrix metalloproteinase-9 (Homo sapiens, UniProt P14780); test: inhibition of human recombinant MMP9 catalytic domain
Sequence of Matrix metalloproteinase-9 (P14780 whole entry, the tested form may be a part): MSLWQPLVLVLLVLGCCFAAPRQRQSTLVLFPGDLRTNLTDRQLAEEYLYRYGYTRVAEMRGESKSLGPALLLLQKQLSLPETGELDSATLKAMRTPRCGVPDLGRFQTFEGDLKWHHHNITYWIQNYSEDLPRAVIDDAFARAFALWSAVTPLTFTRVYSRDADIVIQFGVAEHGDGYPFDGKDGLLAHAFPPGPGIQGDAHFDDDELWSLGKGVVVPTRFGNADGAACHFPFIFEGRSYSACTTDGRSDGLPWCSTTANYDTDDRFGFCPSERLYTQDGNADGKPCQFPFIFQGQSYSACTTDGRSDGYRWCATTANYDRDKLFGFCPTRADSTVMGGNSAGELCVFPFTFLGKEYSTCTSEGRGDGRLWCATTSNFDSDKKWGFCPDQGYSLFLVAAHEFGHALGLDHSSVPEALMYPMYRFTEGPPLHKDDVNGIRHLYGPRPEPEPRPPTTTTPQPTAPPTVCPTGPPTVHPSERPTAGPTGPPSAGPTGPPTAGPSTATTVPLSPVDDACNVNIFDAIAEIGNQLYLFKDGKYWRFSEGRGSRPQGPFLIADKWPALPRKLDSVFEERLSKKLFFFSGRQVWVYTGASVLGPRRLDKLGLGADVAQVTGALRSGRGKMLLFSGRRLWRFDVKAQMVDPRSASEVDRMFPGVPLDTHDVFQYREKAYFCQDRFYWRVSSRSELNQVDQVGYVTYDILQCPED

[6] = Selectivity for TACE over MMP1
[7] = Selectivity for TACE over MMP2
[8] = Selectivity for TACE over MMP9
[9] = Selectivity for TACE over MMP13
[10] = Selectivity for TACE over MMP14

Sequence of Disintegrin and metalloproteinase domain-containing protein 17 (P78536 whole entry, the tested form may be a part): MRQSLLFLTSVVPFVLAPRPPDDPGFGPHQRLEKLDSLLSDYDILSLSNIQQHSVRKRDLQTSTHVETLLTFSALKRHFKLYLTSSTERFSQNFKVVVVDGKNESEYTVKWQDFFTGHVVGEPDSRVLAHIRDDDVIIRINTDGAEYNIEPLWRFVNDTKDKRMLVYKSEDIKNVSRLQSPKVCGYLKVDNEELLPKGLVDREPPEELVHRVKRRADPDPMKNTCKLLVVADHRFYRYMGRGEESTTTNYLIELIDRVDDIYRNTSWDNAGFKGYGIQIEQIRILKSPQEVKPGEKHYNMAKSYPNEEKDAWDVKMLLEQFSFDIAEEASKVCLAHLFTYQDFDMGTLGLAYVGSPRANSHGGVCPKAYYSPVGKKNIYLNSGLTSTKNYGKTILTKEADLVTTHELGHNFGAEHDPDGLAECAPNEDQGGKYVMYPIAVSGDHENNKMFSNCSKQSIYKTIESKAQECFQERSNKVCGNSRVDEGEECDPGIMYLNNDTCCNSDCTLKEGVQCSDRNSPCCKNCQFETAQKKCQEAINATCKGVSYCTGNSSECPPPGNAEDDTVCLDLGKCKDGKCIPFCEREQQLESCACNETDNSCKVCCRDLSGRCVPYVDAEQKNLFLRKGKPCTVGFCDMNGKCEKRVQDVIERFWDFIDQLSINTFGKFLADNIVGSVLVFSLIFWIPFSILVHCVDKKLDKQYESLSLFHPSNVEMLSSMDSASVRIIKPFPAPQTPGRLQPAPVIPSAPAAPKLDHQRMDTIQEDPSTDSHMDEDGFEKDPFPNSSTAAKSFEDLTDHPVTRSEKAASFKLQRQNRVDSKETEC

SMILES	IC50 [1] [nM]	IC50 [2] [nM]	IC50 (Collagenase 3) [nM]	Ratio IC50 (Homo sapiens [3])	Ratio IC50 (Homo sapiens [4])	IC50 (RAW264.7) [nM]	IC50 (Blood) [nM]	IC50 [5] [nM]	Selectivity ratio [6]	Selectivity ratio [7]	Selectivity ratio [8]	Selectivity ratio [9]	Selectivity ratio [10]
Cc1cc(COc2ccc(S(=O)(=O)C3(C(=O)NO)CCN(C(=O)OC(C)(C)C)CC3)cc2)c2ccccc2n1	< 1	2670	1110	> 90	> 90	> 1000	> 50000	–	–	–	–	–	–
Cc1cc(COc2ccc(S(=O)(=O)C3(C(=O)NO)CCNCC3)cc2)c2ccccc2n1	33	> 15000	8620	> 90	> 90	334	2400	> 12000	–	–	–	–	–
Cc1cc(COc2ccc(S(=O)(=O)C3(C(=O)NO)CCN(C(=O)C(C)C)CC3)cc2)c2ccccc2n1	2	1240	415	> 90	> 90	> 1000	14000	–	–	–	–	–	–
CCNC(=O)N1CCC(C(=O)NO)(S(=O)(=O)c2ccc(OCc3cc(C)nc4ccccc34)cc2)CC1	2	3610	835	> 90	> 90	240	2500	–	–	–	–	–	–
Cc1cc(COc2ccc(S(=O)(=O)C3(C(=O)NO)CCN(Cc4ccncc4)CC3)cc2)c2ccccc2n1	9	855	266	–	–	378	11000	–	–	–	–	–	–
Cc1cc(COc2ccc(S(=O)(=O)C3(C(=O)NO)CCN(C=O)CC3)cc2)c2ccccc2n1	2	1400	440	> 90	> 90	68	1300	> 12000	–	–	–	–	–
CC(=O)N1CCC(C(=O)NO)(S(=O)(=O)c2ccc(OCc3cc(C)nc4ccccc34)cc2)CC1	1	6960	1340	> 90	> 90	385	1500	–	–	–	–	–	–
CC#CCOc1ccc(S(=O)(=O)C2(C(=O)NO)CCN(C(=O)c3ccccc3)CC2)cc1	–	–	–	–	< 10	–	–	–	–	–	–	–	–
CC#CCOc1ccc(S(=O)(=O)CC2(C(=O)NO)CCN(C(=O)c3ccccc3)CC2)cc1	–	–	59	–	–	400	2500	–	–	–	–	–	–
Cc1cc(COc2ccc(S(=O)(=O)C3(C(=O)NO)CCN(S(C)(=O)=O)CC3)cc2)c2ccccc2n1	1.2	1740	393	> 90	> 90	345	2800	–	–	–	–	–	–
CCN(CC)C(=O)N1CCC(C(=O)NO)(S(=O)(=O)c2ccc(OCc3cc(C)nc4ccccc34)cc2)CC1	3	96	57	–	–	> 1000	> 50000	–	–	–	–	–	–
CC#CCOc1ccc(S(=O)(=O)C2(C(=O)NO)CCNCC2)cc1	–	–	–	–	< 10	–	–	–	–	–	–	–	–
Cc1cc(COc2ccc(S(=O)(=O)C3(C(=O)NO)CCN(Cc4ccc(Cl)c(Cl)c4)CC3)cc2)c2ccccc2n1	65	145	80	–	–	> 1000	> 50000	–	–	–	–	–	–
Cc1cc(COc2ccc(S(=O)(=O)C3(C(=O)NO)CCN(C(=O)c4ccccc4)CC3)cc2)c2ccccc2n1	1	516	204	> 90	> 90	> 1000	28000	–	–	–	–	–	–
CC#CCOc1ccc(S(=O)(=O)CC2(C(=O)NO)CCNCC2)cc1	1	1590	1900	> 1000	> 1000	–	–	–	–	–	–	–	–
CC#CCOc1ccc(S(=O)(=O)CC2(C(=O)NO)CCN(C(C)=O)CC2)cc1	2	–	–	–	–	490	8700	–	> 75	> 75	> 75	> 75	> 75
Cc1cc(COc2ccc(S(=O)(=O)C3(C(=O)NO)CCN(S(=O)(=O)C(C)C)CC3)cc2)c2ccccc2n1	10	2140	926	> 90	> 90	> 1000	14000	–	–	–	–	–	–
CC#CCOc1ccc(S(=O)(=O)C2(C(=O)NO)CCN(Cc3ccc(Cl)c(Cl)c3)CC2)cc1	149	–	72	–	< 10	–	–	–	–	–	–	–	–
CC#CCOc1ccc(S(=O)(=O)C2(C(=O)NO)CCN(C(C)=O)CC2)cc1	–	–	–	–	< 10	–	–	–	–	–	–	< 5	–
CC#CCOc1ccc(S(=O)(=O)CC2(C(=O)NO)CCN(C(=O)OC(C)(C)C)CC2)cc1	–	–	–	–	–	620	14000	–	–	–	–	–	–
Cc1cc(COc2ccc(S(=O)(=O)C3(C(=O)NO)CCN(C)CC3)cc2)c2ccccc2n1	11	15100	1450	> 90	> 90	125	2400	–	–	–	–	–	–
Cc1cc(COc2ccc(S(=O)(=O)C3(C(=O)NO)CCN(C(=O)c4ccncc4)CC3)cc2)c2ccccc2n1	2	1090	349	> 90	> 90	230	1900	–	–	–	–	–	–
CC#CCOc1ccc(S(=O)(=O)C2(C(=O)NO)CCN(C(=O)OC(C)(C)C)CC2)cc1	–	–	–	–	< 10	–	–	–	–	–	–	–	–
